Where “and” joins values, the source holds several entries; their conditions need not be identical. Identical values can stand only once.
Tested on: 519858-162-T-J1-PDC complex spheroid growth, % test/control
Test: Anticancer human tumor 519858-162-T-J1-PDC patient-derived colon adenocarcinoma cell line growth inhibition [Asc]
Conditions: for viability, T/C: stronger effect = lower value; active = viability on the fitted dose curve at most 10% of control; inactive = the rest
How it was run: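 Complex spheroids combining tumor cells with HUVEC endothelial cells and human MSCs, at 37 degrees C, 5% CO2; agents tested alone or combined, half-log dilutions from at or near clinical Cmax, or 10 microM if Cmax unknown.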

[1] = curve of first compound, second compound 0.00316 µM
[2] = curve of first compound, second compound 0.01 µM
[3] = curve of first compound, second compound 0.0316 µM
[4] = curve of first compound, second compound 0.1 µM
[5] = curve of first compound, second compound 0.316 µM
[6] = curve of first compound, second compound 1 µM
[7] = second compound 0.0316 µM, first compound 0.00949 µM
[8] = second compound 0.0316 µM, first compound 0.03 µM
[9] = second compound 0.0316 µM, first compound 0.0949 µM
[10] = second compound 0.0316 µM, first compound 0.3 µM
[11] = second compound 0.0316 µM, first compound 0.949 µM
[12] = second compound 0.0316 µM, first compound 3 µM
[13] = second compound 0.1 µM, first compound 0.00949 µM
[14] = second compound 0.1 µM, first compound 0.03 µM
[15] = second compound 0.1 µM, first compound 0.0949 µM
[16] = second compound 0.1 µM, first compound 0.3 µM
[17] = second compound 0.1 µM, first compound 0.949 µM
[18] = second compound 0.1 µM, first compound 3 µM
[19] = second compound 0.316 µM, first compound 0.00949 µM
[20] = second compound 0.316 µM, first compound 0.03 µM
[21] = second compound 0.316 µM, first compound 0.0949 µM
[22] = second compound 0.316 µM, first compound 0.3 µM
[23] = second compound 0.316 µM, first compound 0.949 µM
[24] = second compound 0.316 µM, first compound 3 µM
[25] = second compound 1 µM, first compound 0.00949 µM
[26] = second compound 1 µM, first compound 0.03 µM
[27] = second compound 1 µM, first compound 0.0949 µM
[28] = second compound 1 µM, first compound 0.3 µM
[29] = second compound 1 µM, first compound 0.949 µM
[30] = second compound 1 µM, first compound 3 µM
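Note: seven day drug exposure begun three days after spheroid seeding.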
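Throughout, for viability, T/C: 100% = DMSO vehicle wells and lower values mean less viable spheroid.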

Cc1nc(N2CCC3(CC2)COC(C)C3N)c(CO)nc1Sc1ccnc(N)c1Cl (stereo not drawn) + CNC(C)C(=O)NC1CN(S(=O)(=O)c2cccc(S(=O)(=O)N3CCC4CCC(C(=O)NC(c5ccccc5)c5ccccc5)N4C(=O)C(NC(=O)C(C)NC)C3)c2)CCC2CCC(C(=O)NC(c3ccccc3)c3ccccc3)N2C1=O
inactive: viability, T/C (second compound 0.00316 µM, first compound 0.00949 µM) 112% | viability, T/C (second compound 0.00316 µM, first compound 0.03 µM) 91.2% | viability, T/C (second compound 0.00316 µM, first compound 0.0949 µM) 91.2% | viability, T/C (second compound 0.00316 µM, first compound 0.3 µM) 62.1% | viability, T/C (second compound 0.00316 µM, first compound 0.949 µM) 62.1% | viability, T/C (second compound 0.00316 µM, first compound 3 µM) 71.1% | viability, T/C (second compound 0.01 µM, first compound 0.00949 µM) 100% | viability, T/C (second compound 0.01 µM, first compound 0.03 µM) 120% | viability, T/C (second compound 0.01 µM, first compound 0.0949 µM) 102% | viability, T/C (second compound 0.01 µM, first compound 0.3 µM) 68% | viability, T/C (second compound 0.01 µM, first compound 0.949 µM) 55.3% | viability, T/C (second compound 0.01 µM, first compound 3 µM) 61% | viability, T/C [7] 83.8% | viability, T/C [8] 91.4% | viability, T/C [9] 96.8% | viability, T/C [10] 81.5% | viability, T/C [11] 84.5% | viability, T/C [12] 60.8% | viability, T/C [13] 87.7% | viability, T/C [14] 84.5% | viability, T/C [15] 87.7% | viability, T/C [16] 72.6% | viability, T/C [17] 74.5% | viability, T/C [18] 64.8% | viability, T/C [19] 96.9% | viability, T/C [20] 85.3% | viability, T/C [21] 82.1% | viability, T/C [22] 71.4% | viability, T/C [23] 42.8% | viability, T/C [24] 64.2% | viability, T/C [25] 103% | viability, T/C [26] 80.8% | viability, T/C [27] 69.4% | viability, T/C [28] 74.5% | viability, T/C [29] 92.5% | viability, T/C [30] 75.7%
> 3000 nM: IC50 [1] | IC50 [2] | IC50 [3] | IC50 [4] | IC50 [5] | IC50 [6]

NC1CCC(NC2CC2c2ccccc2)CC1 (stereo not drawn) + CNC(C)C(=O)NC1CN(S(=O)(=O)c2cccc(S(=O)(=O)N3CCC4CCC(C(=O)NC(c5ccccc5)c5ccccc5)N4C(=O)C(NC(=O)C(C)NC)C3)c2)CCC2CCC(C(=O)NC(c3ccccc3)c3ccccc3)N2C1=O
inactive: viability, T/C (second compound 0.00316 µM, first compound 0.000316 µM) 106% | viability, T/C (second compound 0.00316 µM, first compound 0.001 µM) 90.1% | viability, T/C (second compound 0.00316 µM, first compound 0.00316 µM) 117% | viability, T/C (second compound 0.00316 µM, first compound 0.01 µM) 112% | viability, T/C (second compound 0.00316 µM, first compound 0.0316 µM) 92.4% | viability, T/C (second compound 0.00316 µM, first compound 0.1 µM) 85.3% | viability, T/C (second compound 0.01 µM, first compound 0.000316 µM) 129% | viability, T/C (second compound 0.01 µM, first compound 0.001 µM) 83.7% | viability, T/C (second compound 0.01 µM, first compound 0.00316 µM) 112% | viability, T/C (second compound 0.01 µM, first compound 0.01 µM) 88.5% | viability, T/C (second compound 0.01 µM, first compound 0.0316 µM) 109% | viability, T/C (second compound 0.01 µM, first compound 0.1 µM) 106% | viability, T/C (second compound 0.0316 µM, first compound 0.000316 µM) 89% | viability, T/C (second compound 0.0316 µM, first compound 0.001 µM) 111% | viability, T/C (second compound 0.0316 µM, first compound 0.00316 µM) 91.9% | viability, T/C (second compound 0.0316 µM, first compound 0.01 µM) 97.4% | viability, T/C (second compound 0.0316 µM, first compound 0.0316 µM) 95.5% | viability, T/C (second compound 0.0316 µM, first compound 0.1 µM) 102% | viability, T/C (second compound 0.1 µM, first compound 0.000316 µM) 105% | viability, T/C (second compound 0.1 µM, first compound 0.001 µM) 112% | viability, T/C (second compound 0.1 µM, first compound 0.00316 µM) 121% | viability, T/C (second compound 0.1 µM, first compound 0.01 µM) 94.9% | viability, T/C (second compound 0.1 µM, first compound 0.0316 µM) 109% | viability, T/C (second compound 0.1 µM, first compound 0.1 µM) 90% | viability, T/C (second compound 0.316 µM, first compound 0.000316 µM) 77.2% | viability, T/C (second compound 0.316 µM, first compound 0.001 µM) 81.5% | viability, T/C (second compound 0.316 µM, first compound 0.00316 µM) 118% | viability, T/C (second compound 0.316 µM, first compound 0.01 µM) 81.4% | viability, T/C (second compound 0.316 µM, first compound 0.0316 µM) 92.1% | viability, T/C (second compound 0.316 µM, first compound 0.1 µM) 102% | viability, T/C (second compound 1 µM, first compound 0.000316 µM) 82.9% | viability, T/C (second compound 1 µM, first compound 0.001 µM) 101% | viability, T/C (second compound 1 µM, first compound 0.00316 µM) 115% | viability, T/C (second compound 1 µM, first compound 0.01 µM) 81.3% | viability, T/C (second compound 1 µM, first compound 0.0316 µM) 85.8% | viability, T/C (second compound 1 µM, first compound 0.1 µM) 80.3%
> 100 nM: IC50 [1] | IC50 [2] | IC50 [3] | IC50 [4] | IC50 [5] | IC50 [6]

CCN1C(C(=O)NC23CCC(C(=O)O)(CC2)CC3)C(c2cccc(Cl)c2F)C2(C(=O)Nc3cc(Cl)ccc32)C12CCCCC2 (stereo not drawn) + Cc1c(S(C)(=O)=O)c(-c2cc(F)cc(N3CCN(c4ccc(NS(=O)(=O)c5ccc(NC(CCN6CCC(C(=O)OCCCP(=O)(O)O)CC6)CSc6ccccc6)c(S(=O)(=O)C(F)(F)F)c5)cc4)CC3)c2)c(-c2ccc(Cl)cc2)n1C(C)C
inactive: viability, T/C [7] 74.8% | viability, T/C [8] 50% | viability, T/C [9] 76.3% | viability, T/C [10] 79.4% | viability, T/C [11] 61.8% | viability, T/C [12] 79.5% | viability, T/C [13] 83.2% | viability, T/C [14] 104% | viability, T/C [15] 84% | viability, T/C [16] 87.6% | viability, T/C [17] 55.4% | viability, T/C [18] 71% | viability, T/C [19] 80.8% | viability, T/C [20] 95.1% | viability, T/C [21] 84.9% | viability, T/C [22] 78% | viability, T/C [23] 65.7% | viability, T/C [24] 54.1% | viability, T/C [25] 67.7% | viability, T/C [26] 69.4% | viability, T/C [27] 75.5% | viability, T/C [28] 56% | viability, T/C [29] 93.4% | viability, T/C [30] 49.8% | viability, T/C (second compound 3.16 µM, first compound 0.00949 µM) 57.5% | viability, T/C (second compound 3.16 µM, first compound 0.03 µM) 56.8% | viability, T/C (second compound 3.16 µM, first compound 0.0949 µM) 73.6% | viability, T/C (second compound 3.16 µM, first compound 0.3 µM) 46.8% | viability, T/C (second compound 3.16 µM, first compound 0.949 µM) 49.3% | viability, T/C (second compound 3.16 µM, first compound 3 µM) 60.9% | viability, T/C (second compound 10 µM, first compound 0.00949 µM) 55.2% | viability, T/C (second compound 10 µM, first compound 0.03 µM) 65.4% | viability, T/C (second compound 10 µM, first compound 0.0949 µM) 30.6% | viability, T/C (second compound 10 µM, first compound 0.3 µM) 71.8% | viability, T/C (second compound 10 µM, first compound 0.949 µM) 43.1% | viability, T/C (second compound 10 µM, first compound 3 µM) 36.7%
> 3000 nM: IC50 [3] | IC50 [4] | IC50 [5] | IC50 [6] | IC50 (curve of first compound, second compound 3.16 µM)
748 nM: IC50 (curve of first compound, second compound 10 µM)

CCN1CCN(Cc2ccc(Nc3ncc(F)c(-c4cc(F)c5nc(C)n(C(C)C)c5c4)n3)nc2)CC1
inactive: viability, T/C (compound 0.00316 µM) 112% and 91.6% and 83.9% | viability, T/C (compound 0.01 µM) 104% and 98.3% and 105% | viability, T/C (compound 0.0316 µM) 91% and 73.6% and 115% | viability, T/C (compound 0.1 µM) 87.1% and 75.9% and 100% | viability, T/C (compound 0.316 µM) 73.9% and 61.4% and 72.9% | viability, T/C (compound 1 µM) 62% and 46.7% and 81.3%
> 1000 nM and 793 nM: IC50 (curve of compound)

— PubChem BioAssay AID1963421 (Molecular Pharmacology Branch, DTP, NCI, 2024)
